Experimental data from patent US6586183B2, “Association of β2-adrenergic receptor haplotypes with drug response” (Genaissance Pharmaceuticals, Inc., priority 2000, dated 2003).

Test system: asthma patients
Assay: Bronchodilator response (spirometry, FEV1) of asthma patients to inhaled albuterol, by β2AR haplotype pair
Assay type: in vivo, human
Description: The patients in the asthma cohort were enrolled from an outpatient facility as described in detail elsewhere (Yan, L., Galinsky, R. E., Bernstein, J. A., Liggett, S. B. & Weinshilboum, R. M. (1999) Pharmacogenetics in Press). […] Forced expiratory volume in 1 second (FEV1) and forced vital capacity (FVC) were determined in triplicate. The predicted values for these measurements were calculated based on standard algorithms (Morris, J. F., Koski, A. & Johnson, L. C. (1971) Am Rev Respir Dis 103, 57-67).
The association between changes in % predicted FEV1 and haplotype pair was assessed by fitting an analysis of covariance model (ANCOVA) with terms for haplotype pair, sex and baseline severity. P-values from pairwise comparisons by haplotype pair were adjusted for multiple comparisons by applying the Holm-Sidak step-down procedure (Ludbrook, J. (1998) Clin and Exp Pharmacology & Physiology 25, 1032-1037.). […] In addition, the African-American asthma patients were excluded from the analysis due to the low number of individuals in this population group. For the analysis of individual SNPs, a similar ANCOVA model was employed with a discrete term for SNP genotype, and terms for sex and baseline severity. The Holm-Sidak step-down procedure was used to adjust the p-values from the individual SNP analyses for the number of tests performed.
Pairwise tests were made while correcting for multiple comparisons. […] For this analysis, a similar ANCOVA model as above was utilized. […] Since 0, 1 or 2 copies of these two haplotypes are present in our population as haplotype pairs 2/2, 2/4 and 4/4, a potential gene dose effect can be assessed by regression analysis.

## CC(C)(C)NCC(O)c1ccc(O)c(CO)c1 (stereo not drawn) [albuterol]
Asthmatic patients with haplotype pair 2/6
  bronchodilator response to albuterol: moderate bronchodilator response
Asthmatic patients with haplotype pairs 2/2 and 4/6
  bronchodilator response to albuterol: respond well
Asthmatic patients with haplotype pairs 2/4 and 4/4
  bronchodilator response to albuterol: little to no response
